Laboratory results reported in US20100062068A1, “CISTUS EXTRACTS” (KREWEL […], priority 2007, published 2010).
Where two headings read alike, the source gives them in different places.

Experiment: Storage stability of nasal sprays with preservatives
Excerpt: As the preservative, for example, benzalkonium chloride, which is often employed in the field of nasal drops, may be used. […] In addition to the free acids as such, their partially or completely neutralized salts may also be added to the nasal sprays.

SMILES | storage stability of the nasal spray (preservative in nasal spray, compared to benzalkonium chloride) | storage stability of the nasal spray
O=C(O)c1ccccc1 [benzoic acid] | significant extension of the storage stability | –
C/C=C/C=C/C(=O)O [sorbic acid] | – | significant extension of the storage stability
